Data reported in patent publication US6436947B1, “Trans cyclopentanyl purine analogs useful as immunosuppressants” (Aventis Pharmaceuticals Inc., priority 1991, dated 2002).
Structures can show the parent of a compound that is named as a salt.

How the values were obtained:
[1] = tested on: TNF-a production by peripheral blood mononuclear cells; assay: Inhibition of Tumor Necrosis Factor alpha in LPS-stimulated PBMC adherent cells (ELISA); format: cell-based; settings: human PBMC adherent cells, 1 μg/ml LPS, 18 hours
Procedure: Peripheral blood mononuclear cells (PBMC) are isolated from venous blood collected from healthy volunteers in sodium citrate (5 ml of 3.6% sodium citrate for 45 ml of blood) by density gradient centrifugation of 5 minutes at 1500 rpm. The PBMC are resuspended in about 10 ml of RPMI-1640 with antibiotics. Approximately 2×10^6 cells of PBMC are added to tissue culture plates, incubated for 45-60 minutes at 37 C with 5% CO2, aspirated, and washed twice by adding about 0.5 ml fresh RPMI-1640 with 10% non-mitogenic FBS (RPMI complete) and shaking for 15 to 30 seconds. 1.0 ml RPMI-1640 is added per well to the remaining adherent cells, which are pretreated with test compound solution about 15 minutes prior to endotoxin stimulation (1 μg/ml lipopolysaccharide from E. coli or solvent concentrations equal to those of test compounds.
Cultures are incubated for 18 hours t 37 C in 5% CO2. Supernatants are tested from TNF-a using a commercial ELISA kit (Cistron, Pine Brook, N.J.). The IC50 is determined using SOFTmax software program.

[2] = tested on: Major Histocompatibility complex (MHC) class II antigen levels on macrophages; assay: Regulation of MHC class II expression on macrophages from M. tuberculosis-treated rats (flow cytometry, OX-6/OX-42); format: cell-based, rat; settings: 10 μM, 18 hours; positive control 59%
Procedure: Using the method of Edwards (J. of Cell Biochemistry 5E, 155(1991)), the ability of a compound of formula (1) to reduce Major Histocompatibility complex (MHC) class II antigen levels on macrophages (MΦ) obtained from M. tuberculosis-treated rats may be measured. Cells obtained from treated rats are plated into tissue culture for a period of 4 hours to purify adherent cells, then treated with increasing levels of drug for a period of 18 hours. After this incubation period, cells are scraped from the dishes and stained using flow cytometry analysis with various monoclonal antibodies such as OX-6 a monoclonal antibody specific for MHC class II antigens and OX-42 a monoclonal antibody specific for rat macrophages.

[3] = tested on: endotoxin-induced septic shock in CF1 mice; assay: Mouse endotoxin lethality model (D-galactosamine/LPS); format: in vivo; settings: 100 mg/kg i.p., pretreated t=-1 hr, 18 mg D-glactoseamine and 50 ng LPS, observed 8-72 hour
Procedure: Using the method of Silverstein, (J. Exp. Med. 173, 357 (1991)) a mouse endotoxin lethality model may be used to determine if a compound of formula (1) has the ability to inhibit endotoxin-induced septic shock which is dependent on the production of Tumor Necrosis Factor-α (TNF-α). CF1 mice pretreated at time (t)=−1 hr with drug are challenged with 18 mg of D-glactoseamine and 50 ng of LPS, then observed for death over an 8-72 hour period.

[4] = tested on: Rat macrophage antigen presentation to mBSA-reactive T-cell hybridoma / Interleukin-2 production; assay: Regulation of macrophage antigen presentation to rat T-cell hybridoma (Interleukin-2 production); format: cell-based
Procedure: Using the method of Ku (Cellular Immunology 130, (1990)), and a Lewis (LEW/N) rat T-cell hybridoma reactive with the protein methylated bovine serum albumin (mBSA), the ability of a compound of formula (1) to regulate MΦ antigen presentation in vitro may be measured. Peritoneal macrophages obtained from LEW/N rats are plated into tissue culture and treated with 100 μg of mBSA and drug. A control is prepared similarly. After a period of 18 hours the cells are washed and incubated with the T-cell hybridoma for an additional 12 hours. Supernatants from these cultures are obtained and measured for content of Interleukin-2, a T-cell derived lymphokine which is produced by activated T-cells. […] Rat macrophage antigen presentation and the subsequent production of Interleukin-2 are inhibited when drug is administered over a concentration range from 0.1 to 100 μM as illustrated in the following table.

SMILES	IC50 [1] [µM]	OX-6/OX-42 double positive macrophages [2] [%]	protection against endotoxin lethality [3]	T-cell activation ([4]; 0.1 to 100 μM)	% Inhibition (antigen presentation / Interleukin-2 production) ([4]; in vitro concentration 0.1 μM) [%]	% Inhibition (antigen presentation / Interleukin-2 production) ([4]; in vitro concentration 1.0 μM) [%]	% Inhibition (antigen presentation / Interleukin-2 production) ([4]; in vitro concentration 10.0 μM) [%]	% Inhibition (antigen presentation / Interleukin-2 production) ([4]; in vitro concentration 100.0 μM) [%]
Nc1ncnc2c1ncn2[C@@H]1CCC[C@H]1O (racemic) [(±)-Trans-1-(9-adenyl)-2-hydroxycyclopentane, reference compound]	22.2	–	–	–	–	–	–	–
Cl.Nc1ncnc2c1ncn2[C@@H]1CC[C@@H](O)C1 (relative stereo) [Example 1, (1R,3R)-trans-1(9-Adenyl)cyclopentan-3-ol Hydrochloride]	9	39	protects against endotoxin lethality	inhibits T-cell activation	7.6	30.9	48.7	55.3
Nc1nc(Cl)nc2c1ncn2[C@@H]1CC[C@@H](O)C1 (relative stereo) [Example 6, (1R,3R)-trans-1-[9-(6-Amino-2-chloropurinyl)]cyclopentan-3-ol Hydrochloride]	4.1	–	–	–	–	–	–	–
